ChEMBL document CHEMBL5149994, “Anticancer potential of indirubins in medicinal chemistry: Biological activity, structural modification, and structure-activity relationship” (Eur J Med Chem, 2021)

Legend:
Format in all cases: functional
MeWo = assay: Antitumor activity against human MeWo cells xenografted in mouse assessed as reduction in tumour volume at 50 mg/kg per day, po administered via oral gavage measured after 14 days relative to control; design: scale not given: the % may be the effect or the level left; conditions: time 14 day
[1] = Antiproliferative activity against human TT cells assessed as cell growth inhibition measured after 72 hrs by EZ-CyTox reagent based analysis
[2] = Antitumor activity against human TT cells xenografted in BALB/c nu/nu mouse assessed as reduction in tumour weight at 40 mg/kg per day, po administered via oral gavage daily measured after 21 days relative to control; design: scale not given: the % may be the effect or the level left; conditions: time 21 day
MV4-11 [3] = assay: Antiproliferative activity against human MV4-11 cells assessed as cell growth inhibition
SNU-638 = assay: Antiproliferative activity against human SNU-638 cells assessed as cell growth inhibition
MV4-11 [4] = assay: Antitumor activity against human MV4-11 cells xenografted in mouse assessed as reduction in tumour volume at 10 mg/kg per day, iv measured after 21 days relative to control; design: scale not given: the % may be the effect or the level left; conditions: time 21 day
PC-3 = assay: Antiproliferative activity against human PC-3 cells assessed as cell growth inhibition

`Cl.Cl.O=C1Nc2c(Br)cccc2/C1=C1/Nc2ccccc2/C1=N\OCCN1CCNCC1` showed an Activity (MeWo) of 37%.
`Cl.O=C1Nc2ccccc2/C1=C1/Nc2ccccc2/C1=N\OCCN1CCNCC1` showed a GI50 [1] of 68200 nM and an Activity [2] of 62.5%.
For `COC(=O)c1ccc2c(c1)/C(=C1/Nc3ccccc3/C1=N\OCCN1CCNCC1)C(=O)N2.Cl.Cl`, the GI50 (MV4-11 [3]) was 1.2 nM, the GI50 (SNU-638) was 2250 nM and the Activity (MV4-11 [4]) was 100%. The GI50 (PC-3) was 1100 nM.
